Data as given in patent US20220363665A1, “QUINOLINE COMPOUNDS FOR THE TREATMENT OF AUTOIMMUNE DISEASE” (Hoffmann-La Roche Inc., priority 2019, published 2022).

How the values were obtained:
CYP2D6 = molecular target: T1, CYP2D6 (Homo sapiens, UniProt P10635); experiment: CYP inhibition assay in human liver microsome, CYP2D6; assay type: in vitro ADME; details: HLM, dextromethorphan substrate; for inhibition at 10 min, 10 µM: human, liver microsomes, probe dextromethorphan, read-out: CYP inhibition % @10 uM (2D6)
T1 construct: tissue BD-Gentest 452117; host or cells: human liver microsomes
T1 sequence (P10635 whole entry): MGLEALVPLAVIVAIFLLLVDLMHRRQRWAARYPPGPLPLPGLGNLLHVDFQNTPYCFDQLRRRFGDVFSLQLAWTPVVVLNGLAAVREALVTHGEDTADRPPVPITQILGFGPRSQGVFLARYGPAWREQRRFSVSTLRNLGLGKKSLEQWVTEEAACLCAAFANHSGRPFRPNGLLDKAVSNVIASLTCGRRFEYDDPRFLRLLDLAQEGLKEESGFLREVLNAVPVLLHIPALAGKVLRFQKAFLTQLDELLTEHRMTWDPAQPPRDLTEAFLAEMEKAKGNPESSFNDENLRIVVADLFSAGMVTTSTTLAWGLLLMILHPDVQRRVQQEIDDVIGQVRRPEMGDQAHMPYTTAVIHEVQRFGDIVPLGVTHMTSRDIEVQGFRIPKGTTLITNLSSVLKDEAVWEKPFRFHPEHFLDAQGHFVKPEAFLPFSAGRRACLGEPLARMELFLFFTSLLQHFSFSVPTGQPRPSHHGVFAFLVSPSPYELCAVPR
Procedure: (§1) This is a high throughput screening assay used for assessment of reversible inhibition of CYP2C9, CYP2D6, and CYP3A4 activity of test compounds in human liver microsome (HLM) in early discovery stage.
(§2) 10 mM DMSO stock solutions of test compounds were diluted in DMSO to generate 2 mM intermediate stock solution. 250 nL of intermediate stock solution were transferred in duplicate into 3 separate 384 well microtitre plates (assay-ready plates). A mixture of HLM and each substrate was made up. 45 μL of HLM substrate mix was then transferred to each well of an assay ready plate and mixed. The negative (solvent) and positive controls (standard inhibitor for each CYP) were included in each assay ready plate. The assay ready plate was warmed to 37° C. in an incubator over 10 minutes. 5 μL pre-warmed NADPH regenerating system was added to each incubation well to start the reaction. Final incubation volume was 50 μL. The assay plate then was placed back in the 37° C. incubator. After 5 minutes incubation (10 minutes for CYP2D6), incubates were quenched by addition of 50 μL quench reagent containing internal standards (400 ng/mL 13C6-4′-OH-Diclofenac, 20 ng/mL D3-Dextrorphan and 20 ng/mL D4-1′OH-Midazolam in acetonitrile). The supernatants were collected for RapidFire/MS/MS analysis.
(§3) RapidFire online solid phase extraction/sample injection system (Agilent) coupled with API4000 triple quadrupole mass spectrometer (AB Sciex) were used for sample analysis. The mobile phase composed of acetonitrile and water supplemented with 0.1% formic acid. A C4 solid phase extraction cartridge is used for sample separation. MS detection is achieved in positive ion MRM mode.
(§4) Peak areas for substrate, metabolite and internal standard are determined using the
(§5) RapidFire integrator software (version 3.6.12009.12296). Peak area ratios (PAR) of metabolite and internal standard (stable-labelled metabolite) are then calculated. The measurement window for each experiment is then defined:
(§6) PAR (0% activity)=average PAR for all incubations containing concentrated inhibitor;
(§7) Par (100% activity)=average PAR for all incubations containing no inhibitor (DMSO controls);
(§8) % Activity (test inhibitor) =[PAR(test inhibitor)-PAR(0% activity)][PAR(100% activity)-PAR(0% activity)];
(§9) % Inhibition (test inhibitor)=100-% Activity (test inhibitor).
(§10) Percentage inhibition data are then reported, in duplicate, for the 3 CYP enzymes.

CYP3A4 = molecular target: T2, CYP3A4 (Homo sapiens, UniProt P08684); experiment: CYP inhibition assay in human liver microsome, CYP3A4; assay type: in vitro ADME; details: HLM, midazolam substrate; for inhibition at 5 min, 10 µM: human, liver microsomes, probe midazolam, read-out: CYP inhibition % @10 uM (3A4)
T2 construct: tissue BD-Gentest 452117; host or cells: human liver microsomes
T2 sequence (P08684 whole entry): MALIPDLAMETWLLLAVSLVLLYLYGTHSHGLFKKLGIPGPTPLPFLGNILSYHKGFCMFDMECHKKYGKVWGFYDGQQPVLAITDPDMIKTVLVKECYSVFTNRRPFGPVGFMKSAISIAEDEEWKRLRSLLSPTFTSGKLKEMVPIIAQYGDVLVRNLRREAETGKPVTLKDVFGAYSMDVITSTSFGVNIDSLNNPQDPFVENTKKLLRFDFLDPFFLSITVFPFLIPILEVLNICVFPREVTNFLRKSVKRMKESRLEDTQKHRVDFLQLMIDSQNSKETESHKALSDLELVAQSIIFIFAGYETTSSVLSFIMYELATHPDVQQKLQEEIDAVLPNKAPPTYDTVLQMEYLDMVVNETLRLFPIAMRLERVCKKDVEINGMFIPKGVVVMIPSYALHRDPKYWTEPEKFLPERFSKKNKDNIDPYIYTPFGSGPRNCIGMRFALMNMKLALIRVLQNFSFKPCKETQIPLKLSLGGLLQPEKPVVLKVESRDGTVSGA
Procedure: as §1, §2, §3, §4, §5, §6, §7, §8, §9, §10

| CYP inhibition % @10 uM (2D6) (CYP2D6) | CYP inhibition % @10 uM (3A4) (CYP3A4; 10 µM) | inhibition at 5 min, 10 µM (CYP3A4) | inhibition at 10 min, 10 µM (CYP2D6) | SMILES |
| --- | --- | --- | --- | --- |
| 8% | – | – | – | CC(NC(=O)[C@H]1CN(c2ccc(C(F)(F)F)c3ncccc23)C[C@@H](C)O1)C1CN(C)CCO1 (single isomer, unassigned) [Example 35A] |
| 2% | – | – | – | CC(NC(=O)[C@H]1CN(c2ccc(C(F)(F)F)c3ncccc23)C[C@@H](C)O1)C1CN(C)CCO1 (single isomer, unassigned) [Example 35B] |
| 2% | −25% | – | – | C[C@@H]1CN(c2ccc(C(F)(F)F)c3ncccc23)C[C@H](C(=O)NC2CC3CNCC32)O1 (single isomer, unassigned) [Example 49A] |
| – | – | -11% | 16% | C[C@@H]1CN(c2ccc(C(F)(F)F)c3ncccc23)C[C@H](C(=O)NCC2CN(C)CCO2)O1 (stereo partly drawn) [Example 3, (2R,6R)-6-methyl-N-[(4-methylmorpholin-2-yl)methyl]-4-[8-(trifluoromethyl)-5-quinolyl]morpholine-2-carboxamide] |
| – | – | -14% | 10% | C[C@@H]1CN(c2ccc(C(F)(F)F)c3ncccc23)C[C@H](C(=O)NCC2CCCCN2C)O1 (stereo partly drawn) [Example 4, (2R,6R)-6-methyl-N-[(1-methyl-2-piperidyl)methyl]-4-[8-(trifluoromethyl)-5-quinolyl]morpholine-2-carboxamide] |
| – | – | -28% | 5% | C[C@@H]1CN(c2ccc(C(F)(F)F)c3ncccc23)C[C@H](C(=O)NCC2COCCN2C)O1 (stereo partly drawn) [Example 11, (2R,6R)-6-methyl-N-[(4-methylmorpholin-3-yl)methyl]-4-[8-(trifluoromethyl)-5-quinolyl]morpholine-2-carboxamide] |
| – | – | -22% | 0% | C[C@@H]1CN(c2ccc(C(F)(F)F)c3ncccc23)C[C@H](C(=O)NCCN2CCOCC2)O1 [Example 13, (2R,6R)-6-methyl-N-(2-morpholinoethyl)-4-[8-(trifluoromethyl)-5-quinolyl]morpholine-2-carboxamide] |
| – | – | -24% | -1% | C[C@@H]1CN(c2ccc(C(F)(F)F)c3ncccc23)C[C@H](C(=O)NC2CNCCOC2)O1 (stereo partly drawn) [Example 14, (2R,6R)-6-methyl-N-(1,4-oxazepan-6-yl)-4-[8-(trifluoromethyl)-5-quinolyl]morpholine-2-carboxamide] |
| – | – | -18% | -10% | Cc1ccc(N2C[C@@H](C)C[C@@H](N)C2)c2cccnc12 [Example 15, (3R,5S)-5-methyl-1-(8-methyl-5-quinolyl)piperidin-3-amine] |
| – | – | – | -10% | C[C@@H]1CN(c2ccc(C(F)(F)F)c3ncccc23)C[C@H](C(=O)N2CCC3(CCNC3)C2)O1 (some centres unmarked) [Example 36] |
| – | – | – | 3% | C[C@@H]1CN(c2ccc(C(F)(F)F)c3ncccc23)C[C@H](C(=O)NC2CC3CNCC(C3)C2)O1 (stereo partly drawn) [Example 37, (2R,6R)-N-(3-azabicyclo[3.3.1]nonan-7-yl)-6-methyl-4-[8-(trifluoromethyl)-5-quinolyl]morpholine-2-carboxamide] |
| – | – | – | -3% | C[C@@H]1CN(c2ccc(Br)c3ncccc23)C[C@H](C(=O)NC2CCN(C)CC2)O1 [Example 42, (2R,6R)-4-(8-bromo-5-quinolyl)-6-methyl-N-(1-methyl-4-piperidyl)morpholine-2-carboxamide] |

| SMILES | CYP inhibition % @10 uM (2D6) (CYP2D6) | CYP inhibition % @10 uM (3A4) (CYP3A4; 10 µM) | inhibition at 5 min, 10 µM (CYP3A4) | inhibition at 10 min, 10 µM (CYP2D6) |
| --- | --- | --- | --- | --- |
| C[C@@H]1CN(c2ccc(C(F)(F)F)c3ncccc23)C[C@H](C(=O)NC2CN(C)CC23CC3)O1 (stereo partly drawn) [Example 9, (2R,6R)-6-methyl-N-(5-methyl-5-azaspiro[2.4]heptan-7-yl)-4-[8-(trifluoromethyl)-5-quinolyl]morpholine-2-carboxamide] | – | – | -18% | 6% |
| C[C@@H]1CN(c2ccc([N+](=O)[O-])c3ncccc23)C[C@H](C(=O)NCC2CN(C)CCO2)O1 (stereo partly drawn) [Example 18, (2R,6R)-6-methyl-N-[(4-methylmorpholin-2-yl)methyl]-4-(8-nitro-5-quinolyl)morpholine-2-carboxamide] | – | – | 11% | 0% |
